In publication PMC5520056, “Cryo-EM structures of the ATP-bound Vps4^E233Q hexamer and its complex with Vta1 at near-atomic resolution” (Nature Communications, 2017):

Molecular target: T1, Vps4–Vta1 complex (Saccharomyces cerevisiae, UniProt P52917)
T1 construct: both proteins with N-terminal His6 tag (pET28a), E. coli BL21(DE3); Vps4 hexamer with Vta1 at ~2:1 Vta1/Vps4; four Vta1 CTD dimers modelled; with Vacuolar protein sorting-associated protein VTA1
T1 sequence (P52917 1-437 E233Q): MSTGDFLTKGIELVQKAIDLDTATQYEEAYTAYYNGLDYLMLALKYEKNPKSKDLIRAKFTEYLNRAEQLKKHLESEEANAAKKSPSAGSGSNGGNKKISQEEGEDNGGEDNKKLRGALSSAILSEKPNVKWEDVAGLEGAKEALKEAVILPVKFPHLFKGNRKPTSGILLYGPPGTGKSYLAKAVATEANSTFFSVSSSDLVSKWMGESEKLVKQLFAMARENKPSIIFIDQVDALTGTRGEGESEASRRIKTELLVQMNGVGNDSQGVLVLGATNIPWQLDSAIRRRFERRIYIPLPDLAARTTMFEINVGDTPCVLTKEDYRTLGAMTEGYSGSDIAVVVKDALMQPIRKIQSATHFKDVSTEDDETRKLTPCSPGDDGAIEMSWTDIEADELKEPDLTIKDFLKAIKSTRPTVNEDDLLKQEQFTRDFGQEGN
T1 sequence (Q06263 1-330 partner): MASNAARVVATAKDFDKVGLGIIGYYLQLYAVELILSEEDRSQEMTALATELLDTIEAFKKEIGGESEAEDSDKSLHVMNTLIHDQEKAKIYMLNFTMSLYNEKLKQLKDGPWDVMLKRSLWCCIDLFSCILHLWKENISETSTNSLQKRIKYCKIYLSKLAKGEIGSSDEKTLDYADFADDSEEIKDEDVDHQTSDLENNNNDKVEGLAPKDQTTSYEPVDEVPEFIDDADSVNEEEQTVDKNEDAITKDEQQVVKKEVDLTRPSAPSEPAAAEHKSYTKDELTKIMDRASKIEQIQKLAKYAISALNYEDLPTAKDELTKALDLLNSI
Test: malachite green phosphate release (ATPase)
Format: biochemical
Conditions: 1 uM Vps4, 5 mM ATP, 2 mM MgCl2, pH 7.5, 37 °C; Vta1 present

Nc1ncnc2c1ncn2[C@@H]1O[C@H](COP(=O)(O)OP(=O)(O)OP(=O)(O)O)[C@@H](O)[C@H]1O [ATP]
malachite green phosphate release (ATPase): the ATPase activity of the wild-type Vps4 was increased by twofold in the presence of Vta1
